Values quoted from earlier work as cited in EP3639895A1, “METHOD OF REDUCING PERSPIRATION” (priority 2018, dated 2020).

Test system: Staphylococcus epidermidis
Details: 80% or greater reduction in growth of inoculum over 16 to 24 hours at 37°C

| minimum inhibitory concentration (MIC) | Compound |
| --- | --- |
| greater than 1 mg.ml^-1 | CCO [ethanol] |
| ca. 25 µg.ml^-1 | CC(C)=CCCC(C)=CCCC(C)=CCO [farnesol, 3,7,11-trimethyldodeca-2,6,10-trienol] |

| Compound | minimum inhibitory concentration (MIC) |
| --- | --- |
| Oc1cc(Cl)ccc1Oc1ccc(Cl)cc1Cl [triclosan, 2',4,4'-trichloro,2-hydroxy-diphenyl ether] | 0.01 to 10 µg/mL |
